Measured values as given in patent US7709478B2, “Acylated 6,7,8,9-tetrahydro-5H-benzocycloheptenyl amines and their use as pharmaceutical agents” (sanofi-aventis Deutschland GmbH, priority 2001, dated 2010).

Experiments:
eNOS promoter = test: Activation of eNOS transcription (eNOS promoter-luciferase reporter gene assay); format: cell-based, human; conditions: 18 h incubation; for EC50: EC50 of transcription induction ratio vs compound concentration, determined graphically, human endothelial cell line stably transfected with eNOS promoter-luciferase construct; for maximal fold induction: read-out: TIR(max)
Procedure: Measurement of Activation of eNOS Transcription
Activation of eNOS transcription was measured as described in detail in Li et al. “Activation of protein kinase C alpha and/or epsilon enhances transcription of the human endothelial nitric oxide synthase gene”, Mol. Pharmacol. 1998; 53: 630-637.
Briefly, a 3.5 kB long fragment 5′ of the starting codon of the eNOS gene was cloned, sequenced and cloned in firefly luciferase expression plasmids to monitor activation of the eNOS promoter by reporter gene activity. A human endothelial cell line stable transfected and expressing this promoter-reporter construct was used for compound testing. Cells were incubated for 18 h with compounds.
All compounds were dissolved in sterile DMSO. A final concentration of 0.5% DMSO in complete medium was allowed. Induction of reporter gene expression in these cells was measured using a standard luciferase assay system (Promega, Cat. No E150) according to the manufacturer's instructions. Luciferase induction in cells incubated with compounds were compared to those incubated with solvent alone. The ratio of both activities (transcription induction ratio, TIR) was plotted as a function of compound concentration. Typically, TIR values started at low concentrations at a ratio of 1, indicating no compound effect, and extended up to a maximum TIR value TIR(max) which indicates the increase of the eNOS transcription. EC50 values of transcription induction ratios as a function of compound concentration were determined graphically.

[1] = maximum transcription induction ratio (luciferase activity with compound / solvent alone), human endothelial cell line with eNOS promoter-luciferase construct

| Compound | EC50 (eNOS promoter) [nM] | maximal fold induction (eNOS promoter; [1]) | melting point [°C] | TIR(max) (eNOS promoter; [1]) |
| --- | --- | --- | --- | --- |
| O=C(NC1CCCc2ccccc2C1)c1ccc(F)cc1 (centres unmarked) [Compound 1, 4-FLUORO-N-(6,7,8,9-TETRAHYDRO-5H-BENZOCYCLOHEPTEN-6-YL)-BENZAMIDE] | 20 | 3.3 | 165 | – |
| O=C(NC1CCCc2ccccc2C1O)c1ccc(F)cc1 (centres unmarked) [Compound 2, 4-FLUORO-N-(5-HYDROXY-6,7,8,9-TETRAHYDRO-5H-BENZOCYCLOHEPTEN-6-YL)-BENZAMIDE] | 6000 | 2.2 | 156 | – |
| Cc1nc2ccc(C(=O)N[C@H]3CCCc4ccccc4C3)cc2[nH]1 [Compound 7, (S)-2-METHYL-3H-BENZOIMIDAZOLE-5-CARBOXYLIC ACID (6,7,8,9-TETRAHYDRO-5H-BENZOCYCLOHEPTEN-6-YL)-AMIDE] | 75 | 3.3 | 206 | – |
| Cc1cnc(C(=O)N[C@H]2CCCc3ccccc3C2)c(N)n1 [Compound 114, (S)-3-AMINO-5-METHYL-PYRAZINE-2-CARBOXYLIC ACID (6,7,8,9-TETRARYDRO-5H-BENZOCYCLOHEPTEN-6-YL)-AMIDE] | 30 | – | – | 2.9 |
| Cc1nc(N)c(C(=O)N[C@H]2CCCc3ccccc3C2)nc1C [Compound 115, (S)-3-AMINO-5,6-DIMETHYL-PYRAZINE-2-CARBOXYLIC ACID (6,7,8,9-TETRAHYDRO-5H-BENZOCYCLOHEPTEN-6-YL)-AMIDE] | 20 | 3 | – | – |
| CNc1cncc(C(=O)N[C@H]2CCCc3ccccc3C2)n1 [Compound 116, (S)-6-METHYLAMINO-PYRAZINE-2-CARBOXYLIC ACID (6,7,8,9-TETRAHYDRO-5H-BENZOCYCLOHEPTEN-6-YL)-AMIDE] | 150 | 2.9 | – | – |
| CN(C)c1ccc(C(=O)N[C@H]2CCCc3ccccc3C2)cn1 [Compound 117, (S)-6-DIMETHYLAMINO-N-(6,7,8,9-TETRAHYDRO-5H-BENZOCYCLOHEPTEN-6-YL)-NICOTINAMIDE] | 136 | 3 | – | – |
| O=C(N[C@H]1CCCc2ccccc2C1)c1ccc(N2CCCC2)nc1 [Compound 118, (S)-6-PYRROLIDIN-1-YL-N-(6,7,8,9-TETRAHYDRO-5H-BENZOCYCLOHEPTEN-6-YL)-NICOTINAMIDE] | 140 | 3 | – | – |
| Cc1ccc(C(=O)N[C@H]2CCCc3ccccc3C2)cc1NS(C)(=O)=O [Compound 119, (S)-3-METHANESULFONYLAMINO-4-METHYL-N-(6,7,8,9-TETRAHYDRO-5H-BENZOCYCLOHEPTEN-6-YL)-BENZAMIDE] | 230 | 3 | – | – |
| Cc1nc(C2CC2)sc1C(=O)N[C@H]1CCCc2ccccc2C1 [Compound 120, (S)-2-CYCLOPROPYL-4-METHYL-THIAZOLE-5-CARBOXYLIC ACID (6,7,8,9-TETRAHYDRO-5H-BENZOCYCLOHEPTEN-6-YL)-AMIDE] | 41 | 3.1 | – | – |
| Cc1cc(C(=O)N[C@H]2CCCc3ccccc3C2)n(C)n1 [Compound 122, (S)-2,5-DIMETHYL-2H-PYRAZOLE-3-CARBOXYLIC ACID (6,7,8,9-TETRAHYDRO-5H-BENZOCYCLOHEPTEN-6-YL)-AMIDE] | 15 | 2.85 | – | – |
| O=C(N[C@H]1CCCc2ccccc2C1)c1ccc(OCC(F)(F)F)cc1 [Compound 125, (S)—N-(6,7,8,9-TETRAHYDRO-5H-BENZOCYCLOHEPTEN-6-YL)-4-(2,2,2-TRIFLUORO-ETHOXY)-BENZAMIDE] | 40 | 3 | – | – |
| O=C(N[C@H]1CCCc2ccccc2C1)c1ccc2nc[nH]c2c1 [Compound 126, (S)-3H-BENZOIMIDAZOLE-5-CARBOXYLIC ACID (6,7,8,9-TETRAHYDRO-5H-BENZOCYCLOHEPTEN-6-YL)-AMIDE] | 351 | 2.9 | – | – |
| CN1CC(=O)Nc2cc(C(=O)NC3CCCc4ccccc4C3)ccc21 (centres unmarked) [Compound 127, 1-METHYL-3-OXO-1,2,3,4-TETRAHYDRO-QUINOXALINE-6-CARBOXYLIC ACID (6,7,8,9-TETRAHYDRO-5H-BENZOCYCLOHEPTEN-6-YL)-AMIDE] | 4900 | 2.7 | – | – |
| Nc1nc(Cl)ccc1C(=O)N[C@H]1CCCc2ccccc2C1 [Compound 128, (S)-2-AMINO-6-CHLORO-N-(6,7,8,9-TETRAHYDRO-5H-BENZOCYCLOHEPTEN-6-YL)-NICOTINAMIDE] | 2 | 3.1 | – | – |
| Cc1nc(N(C)C)sc1C(=O)N[C@H]1CCCc2ccccc2C1 [Compound 129, (S)-2-DIMETHYLAMINO-4-METHYL-THIAZOLE-5-CARBOXYLIC ACID (6,7,8,9-TETRAHYDRO-5H-BENZOCYCLOHEPTEN-6-YL)-AMIDE] | 100 | 3.1 | – | – |

| Compound | EC50 (eNOS promoter) [nM] | maximal fold induction (eNOS promoter; [1]) | melting point [°C] | TIR(max) (eNOS promoter; [1]) |
| --- | --- | --- | --- | --- |
| COc1ccc(C(=O)N[C@H]2CCCc3ccccc3C2)cn1 [Compound 130, (S)-6-METHOXY-N-(6,7,8,9-TETRAHYDRO-5H-BENZOCYCLOHEPTEN-6-YL)-NICOTINAMIDE] | 110 | 3.1 | – | – |
| Cc1ccc(C(=O)N[C@H]2CCCc3ccccc3C2)cc1N(C)C [Compound 131, (S)-3-DIMETHYLAMINO-4-METHYL-N-(6,7,8,9-TETRAHYDRO-5H-BENZOCYCLOHEPTEN-6-YL)-BENZAMIDE] | 440 | 3.1 | – | – |
| O=C(N[C@H]1CCCc2ccccc2C1)c1cccc(N2CCCC2)c1 [Compound 132, (S)-3-PYRROLIDIN-1-YL-N-(6,7,8,9-TETRAHYDRO-5H-BENZOCYCLOHEPTEN-6-YL)-BENZAMIDE] | 50 | 3.1 | – | – |
| COCc1ccc(C(=O)N[C@H]2CCCc3ccccc3C2)cn1 [Compound 133, (S)-6-METHOXYMETHYL-N-(6,7,8,9-TETRAHYDRO-5H-BENZOCYCLOHEPTEN-6-YL)-NICOTINAMIDE] | 128 | 3.1 | – | – |
| O=C(NC1CCCc2ccccc2C1)c1cnc2c(c1)CCCC2 (centres unmarked) [Compound 134, 5,6,7,8-TETRAHYDRO-QUINOLINE-3-CARBOXYLIC ACID (6,7,8,9-TETRAHYDRO-5H-BENZOCYCLOHEPTEN-6-YL)-AMIDE] | 3000 | 3.5 | – | – |
| CNc1cc(C(=O)NC2CCCc3ccccc3C2)ccc1C (centres unmarked) [Compound 135, 4-METHYL-3-METHYLAMINO-N-(6,7,8,9-TETRAHYDRO-5H-BENZOCYCLOHEPTEN-6-YL)-BENZAMIDE] | 589 | 3 | – | – |
| Nc1nc(Cl)ccc1C(=O)NC1CCCc2ccccc2C1 (centres unmarked) [Compound 137, 2-AMINO-6-CHLORO-N-(6,7,8,9-TETRAHYDRO-5H-BENZOCYCLOHEPTEN-6-YL)-NICOTINAMIDE] | 90 | 3 | – | – |
| NS(=O)(=O)c1cc(C(=O)NC2CCCc3ccccc3C2)ccc1Cl (centres unmarked) [Compound 138, 4-CHLORO-3-SULFAMOYL-N-(6,7,8,9-TETRAHYDRO-5H-BENZOCYCLOHEPTEN-6-YL)-BENZAMIDE] | 10000 | 3 | – | – |
| CS(=O)(=O)c1cccc(C(=O)NC2CCCc3ccccc3C2)c1 (centres unmarked) [Compound 139, 3-METHANESULFONYL-N-(6,7,8,9-TETRAHYDRO-5H-BENZOCYCLOHEPTEN-6-YL)-BENZAMIDE] | 1900 | 3 | – | – |
| Cc1ccc(S(C)(=O)=O)cc1C(=O)NC1CCCc2ccccc2C1 (centres unmarked) [Compound 140, 5-METHANESULFONYL-2-METHYL-N-(6,7,8,9-TETRAHYDRO-5H-BENZOCYCLOHEPTEN-6-YL)-BENZAMIDE] | 1300 | 3 | – | – |
| O=C(NC1CCCc2ccccc2C1)c1nc(Cl)ccc1Cl (centres unmarked) [Compound 141, 3,6-DICHLORO-PYRIDINE-2-CARBOXYLIC ACID (6,7,8,9-TETRAHYDRO-5H-BENZOCYCLOHEPTEN-6-YL)-AMIDE] | 250 | 3.2 | – | – |
| O=C(NC1CCCc2ccccc2C1)c1cc(NCc2ccccc2)ccn1 (centres unmarked) [Compound 142, 4-BENZYLAMINO-PYRIDINE-2-CARBOXYLIC ACID (6,7,8,9-TETRAHYDRO-5H-BENZOCYCLOHEPTEN-6-YL)-AMIDE] | 3000 | 2.5 | – | – |
| Nc1cccnc1C(=O)NC1CCCc2ccccc2C1 (centres unmarked) [Compound 144, 3-AMINO-PYRIDINE-2-CARBOXYLIC ACID (6,7,8,9-TETRAHYDRO-5H-BENZOCYCLOHEPTEN-6-YL)-AMIDE] | 10 | 2.9 | – | – |
| CS(=O)(=O)Nc1cccnc1C(=O)NC1CCCc2ccccc2C1 (centres unmarked) [Compound 145, 3-METHANESULFONYLAMINO-PYRIDINE-2-CARBOXYLIC ACID (6,7,8,9-TETRAHYDRO-5H-BENZOCYCLOHEPTEN-6-YL)-AMIDE] | 3800 | 1.6 | – | – |
| Nc1ccnc(C(=O)NC2CCCc3ccccc3C2)c1 (centres unmarked) [Compound 146, 4-AMINO-PYRIDINE-2-CARBOXYLIC ACID (6,7,8,9-TETRAHYDRO-5H-BENZOCYCLOHEPTEN-6-YL)-AMIDE] | 2400 | 2.9 | – | – |
